Reference: patent US20110039721A1, “METHOD FOR PREDICTION ABOUT CARCINOGENICITY OF SUBSTANCE IN RODENT” (Chemicals Evaluation and Research Institute, priority 2007, published 2011)

Legend:
rodent = settings: in vivo; cited from earlier work
liver = settings: in vivo; cited from earlier work
[1] = test system: mRNA expressed from the genes (A) to (D) in rat liver; assay: Behavior of genes (mRNA expression level, oligo-DNA microarray) in rat liver after 28-day oral administration; type: in vivo; settings: rat liver, oral once daily 28 days; for Behavior of gene caused by administration of chemical substance, Gene No. 4846 / Behavior of gene caused by administration of chemical substance, Gene No. 4218 / Behavior of gene caused by administration of chemical substance, Gene No. 2026 / Behavior of gene caused by administration of chemical substance, Gene No. 6182 / Behavior of gene caused by administration of chemical substance, Gene No. 5600: (A); for Behavior of gene caused by administration of chemical substance, Gene No. 4846: Unigene Rn.144554, defined direction +; for Behavior of gene caused by administration of chemical substance, Gene No. 4218: Unigene Rn.167075, defined direction +, significant = 1.5 times or more or 1/1.5 or less of control; for Behavior of gene caused by administration of chemical substance, Gene No. 2026: Unigene Rn.167075, defined direction −; for Behavior of gene caused by administration of chemical substance, Gene No. 6182: Unigene Rn.5834, defined direction +; for Behavior of gene caused by administration of chemical substance, Gene No. 5600: Unigene Rn.9836, defined direction +; for Behavior of gene caused by administration of chemical substance, Gene No. 1494 / Behavior of gene caused by administration of chemical substance, Gene No. 2045 / Behavior of gene caused by administration of chemical substance, Gene No. 2203: (B); for Behavior of gene caused by administration of chemical substance, Gene No. 1494: Unigene Rn.1430, defined direction −; for Behavior of gene caused by administration of chemical substance, Gene No. 2045: Unigene Rn.19329, defined direction +; for Behavior of gene caused by administration of chemical substance, Gene No. 2203: Unigene Rn.21240, defined direction +; for Behavior of gene caused by administration of chemical substance, Gene No. 533 / Behavior of gene caused by administration of chemical substance, Gene No. 725 / Behavior of gene caused by administration of chemical substance, Gene No. 1163 / Behavior of gene caused by administration of chemical substance, Gene No. 4973 / Behavior of gene caused by administration of chemical substance, Gene No. 4095 / Behavior of gene caused by administration of chemical substance, Gene No. 1334 / Behavior of gene caused by administration of chemical substance, Gene No. 6620 / Behavior of gene caused by administration of chemical substance, Gene No. 6303 / Behavior of gene caused by administration of chemical substance, Gene No. 5878 / Behavior of gene caused by administration of chemical substance, Gene No. 1131 / Behavior of gene caused by administration of chemical substance, Gene No. 1562 / Behavior of gene caused by administration of chemical substance, Gene No. 1741 / Behavior of gene caused by administration of chemical substance, Gene No. 893 / Behavior of gene caused by administration of chemical substance, Gene No. 6026 / Behavior of gene caused by administration of chemical substance, Gene No. 154 / Behavior of gene caused by administration of chemical substance, Gene No. 1993 / Behavior of gene caused by administration of chemical substance, Gene No. 813 / Behavior of gene caused by administration of chemical substance, Gene No. 2494 / Behavior of gene caused by administration of chemical substance, Gene No. 2546 / Behavior of gene caused by administration of chemical substance, Gene No. 3776 / Behavior of gene caused by administration of chemical substance, Gene No. 3929 / Behavior of gene caused by administration of chemical substance, Gene No. 1119 / Behavior of gene caused by administration of chemical substance, Gene No. 6742 / Behavior of gene caused by administration of chemical substance, Gene No. 5634: (C); for Behavior of gene caused by administration of chemical substance, Gene No. 533: Unigene Rn.106184, defined direction +; for Behavior of gene caused by administration of chemical substance, Gene No. 725: Unigene Rn.108075, defined direction −; for Behavior of gene caused by administration of chemical substance, Gene No. 1163: Unigene Rn.11766, defined direction +; for Behavior of gene caused by administration of chemical substance, Gene No. 4973: Unigene Rn.118529, defined direction −; for Behavior of gene caused by administration of chemical substance, Gene No. 4095: Unigene Rn.119024, defined direction −; for Behavior of gene caused by administration of chemical substance, Gene No. 1334 / Behavior of gene caused by administration of chemical substance, Gene No. 6620: Unigene Rn.120914, defined direction +; for Behavior of gene caused by administration of chemical substance, Gene No. 6303: Unigene Rn.123063, defined direction −; for Behavior of gene caused by administration of chemical substance, Gene No. 5878: Unigene Rn.143213, defined direction −; for Behavior of gene caused by administration of chemical substance, Gene No. 1131: Unigene Rn.144946, defined direction −; for Behavior of gene caused by administration of chemical substance, Gene No. 1562: Unigene Rn.14744, defined direction −; for Behavior of gene caused by administration of chemical substance, Gene No. 1741: Unigene Rn.1647, defined direction −; for Behavior of gene caused by administration of chemical substance, Gene No. 893: Unigene Rn.164817, defined direction +; for Behavior of gene caused by administration of chemical substance, Gene No. 6026: Unigene Rn.167685, defined direction −; for Behavior of gene caused by administration of chemical substance, Gene No. 154: Unigene Rn.185941, defined direction −; for Behavior of gene caused by administration of chemical substance, Gene No. 1993: Unigene Rn.18728, defined direction −; for Behavior of gene caused by administration of chemical substance, Gene No. 813: Unigene Rn.201760, defined direction +; for Behavior of gene caused by administration of chemical substance, Gene No. 2494: Unigene Rn.23969, defined direction +; for Behavior of gene caused by administration of chemical substance, Gene No. 2546: Unigene Rn.24561, defined direction −; for Behavior of gene caused by administration of chemical substance, Gene No. 3776: Unigene Rn.43232, defined direction −; for Behavior of gene caused by administration of chemical substance, Gene No. 3929: Unigene Rn.4620, defined direction +; for Behavior of gene caused by administration of chemical substance, Gene No. 1119: Unigene Rn.9757, defined direction +; for Behavior of gene caused by administration of chemical substance, Gene No. 6742: Unigene Rn.9779, defined direction +; for Behavior of gene caused by administration of chemical substance, Gene No. 5634: Unigene Rn.9862, defined direction −; for Behavior of gene caused by administration of chemical substance, Gene No. 5726: (D), Unigene Rn.9939, defined direction −
Outline: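 Male F344 SPF rats, 5 weeks old, four per group, dosed by oral gavage once daily for 28 days with test chemical or matched-volume solvent. Liver total RNA profiled on oligo-DNA microarray. Change ≥1.5-fold or ≤1/1.5 versus vehicle counted as significant if its direction matched that seen with other carcinogens.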

SMILES | Carcinogenicity (rodent) | Liver carcinogenicity (liver) | Behavior of gene caused by administration of chemical substance, Gene No. 4846 [1] | Behavior of gene caused by administration of chemical substance, Gene No. 4218 [1] | Behavior of gene caused by administration of chemical substance, Gene No. 2026 [1] | Behavior of gene caused by administration of chemical substance, Gene No. 6182 [1] | Behavior of gene caused by administration of chemical substance, Gene No. 5600 [1] | Behavior of gene caused by administration of chemical substance, Gene No. 1494 [1] | Behavior of gene caused by administration of chemical substance, Gene No. 2045 [1] | Behavior of gene caused by administration of chemical substance, Gene No. 2203 [1] | Behavior of gene caused by administration of chemical substance, Gene No. 533 [1] | Behavior of gene caused by administration of chemical substance, Gene No. 725 [1] | Behavior of gene caused by administration of chemical substance, Gene No. 1163 [1] | Behavior of gene caused by administration of chemical substance, Gene No. 4973 [1] | Behavior of gene caused by administration of chemical substance, Gene No. 4095 [1] | Behavior of gene caused by administration of chemical substance, Gene No. 1334 [1] | Behavior of gene caused by administration of chemical substance, Gene No. 6620 [1] | Behavior of gene caused by administration of chemical substance, Gene No. 6303 [1] | Behavior of gene caused by administration of chemical substance, Gene No. 5878 [1] | Behavior of gene caused by administration of chemical substance, Gene No. 1131 [1] | also measured
O=NN1CCCCC1 [TS042, N-Nitrosopiperidine] | C+ | Cr+ | + | + | + | + | + | + | − | − | + | − | − | − | − | − | − | + | − | + | Behavior of gene caused by administration of chemical substance, Gene No. 1562 [1]: +; Behavior of gene caused by administration of chemical substance, Gene No. 1741 [1]: −; Behavior of gene caused by administration of chemical substance, Gene No. 893 [1]: −; Behavior of gene caused by administration of chemical substance, Gene No. 6026 [1]: −; Behavior of gene caused by administration of chemical substance, Gene No. 154 [1]: −; Behavior of gene caused by administration of chemical substance, Gene No. 1993 [1]: +; Behavior of gene caused by administration of chemical substance, Gene No. 813 [1]: +; Behavior of gene caused by administration of chemical substance, Gene No. 2494 [1]: −; Behavior of gene caused by administration of chemical substance, Gene No. 2546 [1]: −; Behavior of gene caused by administration of chemical substance, Gene No. 3776 [1]: −; Behavior of gene caused by administration of chemical substance, Gene No. 3929 [1]: −; Behavior of gene caused by administration of chemical substance, Gene No. 1119 [1]: −; Behavior of gene caused by administration of chemical substance, Gene No. 6742 [1]: −; Behavior of gene caused by administration of chemical substance, Gene No. 5634 [1]: −; Behavior of gene caused by administration of chemical substance, Gene No. 5726 [1]: +
CC(=O)Nc1ccc2c(c1)Cc1ccccc1-2 [TS043, 2-Acetylaminofluorene] | C+ | Cr+ | + | + | + | + | + | − | − | − | − | + | + | + | + | − | − | + | − | − | Behavior of gene caused by administration of chemical substance, Gene No. 1562 [1]: +; Behavior of gene caused by administration of chemical substance, Gene No. 1741 [1]: −; Behavior of gene caused by administration of chemical substance, Gene No. 893 [1]: +; Behavior of gene caused by administration of chemical substance, Gene No. 6026 [1]: −; Behavior of gene caused by administration of chemical substance, Gene No. 154 [1]: −; Behavior of gene caused by administration of chemical substance, Gene No. 1993 [1]: +; Behavior of gene caused by administration of chemical substance, Gene No. 813 [1]: −; Behavior of gene caused by administration of chemical substance, Gene No. 2494 [1]: −; Behavior of gene caused by administration of chemical substance, Gene No. 2546 [1]: −; Behavior of gene caused by administration of chemical substance, Gene No. 3776 [1]: −; Behavior of gene caused by administration of chemical substance, Gene No. 3929 [1]: −; Behavior of gene caused by administration of chemical substance, Gene No. 1119 [1]: −; Behavior of gene caused by administration of chemical substance, Gene No. 6742 [1]: −; Behavior of gene caused by administration of chemical substance, Gene No. 5634 [1]: −; Behavior of gene caused by administration of chemical substance, Gene No. 5726 [1]: −
